Test results from patent publication US20130059894A1, “PESTICIDAL COMPOSITION AND ITS USE” (SUMITOMO CHEMICAL COMPANY, LIMITED, priority 2010, published 2013).

System: Rhizoctonia solani
Experiment: Soybean seed treatment test against disease caused by Rhizoctonia solani in contaminated soil
Type: in vivo, Rhizoctonia solani on soybean (variety: Natto shoryu)
Conditions: seed treatment of soybean; carboxamide compound 0.2 g/100 kg of seeds alone (no sulfoxaflor); cultivated 20 days in soil contaminated by Rhizoctonia solani
Procedure: A cyclohexanone solution (100 microL) containing prescribed amount (weight) of a test compound was applied on seeds of soybean (variety: Natto shoryu) (10 g) by using a rotary apparatus for seed treatment (Seed dresser, manufactured by Hans-Ulrich Hege GmbH). One day after the application, plastic pot was filled with soil contaminated by Rhizoctonia solani, and the seeds treated with the test compounds were seeded in the soil and cultivated in a glass-greenhouse for 20 days (hereinafter referred to as “treated plot”). Thereafter, the presence of disease caused by Rhizoctonia solani in the young plants which germinated from each seed was observed and disease severity was calculated according to the following calculation formula (1). On the other hand, seeds of soybean which are not treated as above were cultivated in the same way as above (hereinafter referred to as “non-treated plot”) and the disease severity in the “non-treated plot” was calculated in the same way as the above “treated plot”. On the basis of the above severity in “treated plot” and “non-treated plot”, efficacy in “treated plot” was evaluated according to the following calculation formula (2). […]

## Cc1nn(C)c(C)c1C(=O)Nc1cccc2c1C(C)CC2(C)C (stereo not shown) [carboxamide compound (5)]
  efficacy (%): 15.8%
